Measured values taken from ChEMBL document CHEMBL4477154, “Gersemiols A-C and Eunicellol A, Diterpenoids from the Arctic Soft Coral Gersemia fruticosa” (2016).
≈ marks a conversion by molar mass, not a printed value. Calls of active or inactive are those of the source. The calls are words filed in the database; no cut-off is given here.

Experiments:
[1] = system: HepG2; experiment: Cytotoxicity against human HepG2 cells assessed as cell growth inhibition at 15 ug/ml after 72 hrs by MTT assay; format: functional, cell-based
[2] = system: HT-29; experiment: Cytotoxicity against human HT-29 cells assessed as cell growth inhibition at 15 ug/ml after 72 hrs by MTT assay; format: functional, cell-based
[3] = system: A549; experiment: Cytotoxicity against human A549 cells assessed as cell growth inhibition at 15 ug/ml after 72 hrs by MTT assay; format: functional, cell-based
[4] = system: MIA PaCa-2; experiment: Cytotoxicity against human MIAPaCa2 cells assessed as cell growth inhibition at 15 ug/ml after 72 hrs by MTT assay; format: functional, cell-based
[5] = system: MCF7; experiment: Cytotoxicity against human MCF7 cells assessed as cell growth inhibition at 15 ug/ml after 72 hrs by MTT assay; format: functional, cell-based
[6] = system: Staphylococcus aureus; experiment: Antibacterial activity against methicillin-resistant Staphylococcus aureus after 20 hrs by spectrophotometry; format: functional

SMILES	growth inhibition (GI) [1]	growth inhibition (GI) [2]	growth inhibition (GI) [3]	growth inhibition (GI) [4]	growth inhibition (GI) [5]	MIC50 [6] [µg/mL]
C=C1CCC[C@]2(C)CC[C@@]3(O)[C@@H]([C@@H](C(C)C)CC[C@@H]3C)[C@H]12	inactive	inactive	inactive	inactive	inactive	48 (≈ 165 µM)
CC1=CCC[C@]2(C)CC[C@@]3(O)[C@@H]([C@@H](C(C)C)CC[C@@H]3C)[C@H]12	inactive	inactive	inactive	inactive	inactive	
CC1=CCC[C@]2(C)CC[C@@H]3[C@@H]([C@@H](C(C)C)CC[C@]3(C)O)[C@H]12	inactive	inactive	inactive	inactive	inactive	
